pKi: −log10 of the molar value.
The molecules below were run against human GlyT1c transporter (Homo sapiens (Human), UniProt P48067) (assay: Radioligand binding assays using recombinant CHO cell membranes expressing human GlyT1). Conditions: not given.
Sequence of human GlyT1c transporter (P48067 whole entry): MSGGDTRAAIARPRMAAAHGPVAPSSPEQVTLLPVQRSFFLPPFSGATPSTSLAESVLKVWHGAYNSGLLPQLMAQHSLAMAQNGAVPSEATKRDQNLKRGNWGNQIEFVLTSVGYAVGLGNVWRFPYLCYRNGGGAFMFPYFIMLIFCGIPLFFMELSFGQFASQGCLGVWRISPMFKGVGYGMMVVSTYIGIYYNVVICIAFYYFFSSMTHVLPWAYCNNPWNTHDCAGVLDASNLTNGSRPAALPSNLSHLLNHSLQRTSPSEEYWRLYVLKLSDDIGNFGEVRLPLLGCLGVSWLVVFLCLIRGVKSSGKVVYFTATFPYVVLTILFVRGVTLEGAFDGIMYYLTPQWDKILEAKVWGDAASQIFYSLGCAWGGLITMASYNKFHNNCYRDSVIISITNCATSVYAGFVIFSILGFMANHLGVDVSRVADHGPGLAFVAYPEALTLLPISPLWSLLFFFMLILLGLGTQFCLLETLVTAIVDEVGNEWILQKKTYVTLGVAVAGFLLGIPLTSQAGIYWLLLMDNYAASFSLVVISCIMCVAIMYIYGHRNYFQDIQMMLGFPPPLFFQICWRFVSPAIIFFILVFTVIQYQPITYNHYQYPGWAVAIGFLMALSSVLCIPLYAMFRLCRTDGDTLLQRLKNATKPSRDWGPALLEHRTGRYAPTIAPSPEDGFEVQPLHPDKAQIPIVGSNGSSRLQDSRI

pKi | Compound
≥ 7.00 | Cn1cnc(S(=O)(=O)N2C[C@@H](C(=O)c3ccc(Cl)c(F)c3)[C@H](c3ccc(F)cc3)C2)c1 (relative stereo) [Example 319, (4-Chloro-3-fluorophenyl){trans-4-(4-fluorophenyl)-1-[(1-methyl-1H-imidazol-4-yl)sulfonyl]pyrrolidin-3-yl}methanone]
≥ 7.00 | Cn1cnc(S(=O)(=O)N2C[C@@H](C(=O)c3cc(Cl)cc(Cl)c3)[C@H](c3ccc(F)cc3)C2)c1 (relative stereo) [Example 360, (3,5-Dichlorophenyl) {trans-4-(4-fluorophenyl)-1-[(1-methyl-1H-imidazol-4-yl)sulfonyl]pyrrolidin-3-yl}methanone]

Same assay, conditions: radioligand binding, human GlyT1c transporter-expressing CHO cell membranes

Compound | pKi
O=S(=O)(c1ccc(Cl)s1)N1CC(Nc2ccc(F)c(F)c2)C(c2ccccc2)C1 (stereo not drawn) [Example 511, 1-[(5-chlorothiophen-2-yl)sulfonyl]-N-(3,4-difluorophenyl)-4-phenylpyrrolidin-3-amine] | ≥ 5.00
Cc1ccc(-c2cc(N[C@H]3CN(S(=O)(=O)c4cn(C)cn4)C[C@@H]3c3ccc(F)cc3)ncn2)cc1 [Example 725, N-{(3R,4S)-4-(4-fluorophenyl)-1-[(1-methyl-1H-imidazol-4-yl)sulfonyl]pyrrolidin-3-yl}-6-(4-methylphenyl)pyrimidin-4-amine] | ≥ 8.00
Cn1cnc(S(=O)(=O)N2C[C@H](NCC3CCOC(C)(C)C3)[C@@H](c3ccccc3)C2)c1 (stereo partly drawn) [Example 557, (3R,4S)—N-[(2,2-dimethyltetrahydro-2H-pyran-4-yl)methyl]-1-[(1-methyl-1H-imidazol-4-yl)sulfonyl]-4-phenylpyrrolidin-3-amine] | ≥ 5.00
O=S(=O)(C1CCC1)N1CC(Nc2ccc(F)c(F)c2)C(c2ccccc2)C1 (stereo not drawn) [Example 509, 1-(cyclobutylsulfonyl)-N-(3,4-difluorophenyl)-4-phenylpyrrolidin-3-amine] | ≥ 5.00
CC(C)OCCCNC(=O)[C@@H]1CN(S(=O)(=O)c2cn(C)cn2)C[C@H]1c1ccc(F)cc1 [Example 577, (3S,4R)-4-(4-fluorophenyl)-1-[(1-methyl-1H-imidazol-4-yl)sulfonyl]-N-[3-(propan-2-yloxy)propyl]pyrrolidine-3-carboxamide] | < 5.00
Cn1cnc(S(=O)(=O)N2C[C@H](NCc3csc(Cl)n3)[C@@H](c3ccccc3)C2)c1 [Example 562, (3R,4S)—N-[(2-chloro-1,3-thiazol-4-yl)methyl]-1-[(1-methyl-1H-imidazol-4-yl)sulfonyl]-4-phenylpyrrolidin-3-amine] | ≥ 5.00
Cn1cnc(S(=O)(=O)N2C[C@H](Nc3cc(OC4CCC4)ncn3)[C@@H](c3ccc(F)cc3)C2)c1 [Example 719, 6-(cyclobutyloxy)-N-{(3R,4S)-4-(4-fluorophenyl)-1-[(1-methyl-1H-imidazol-4-yl)sulfonyl]pyrrolidin-3-yl}pyrimidin-4-amine] | ≥ 7.00
Cn1cnc(S(=O)(=O)N2CC(c3ccc(F)cc3)C(O)(Cc3ccccc3)C2)c1 (stereo not drawn) [Example 382, 3-benzyl-4-(4-fluorophenyl)-1-[(1-methyl-1H-imidazol-4-yl)sulfonyl]pyrrolidin-3-ol] | ≥ 7.00
Cc1ccc(CN[C@H]2CN(S(=O)(=O)c3cn(C)cn3)C[C@@H]2c2ccccc2)s1 [Example 462, (3R,4S)-1-[(1-methyl-1H-imidazol-4-yl)sulfonyl]-N-[(5-methylthiophen-2-yl)methyl]-4-phenylpyrrolidin-3-amine] | ≥ 7.00
Cn1cc(S(=O)(=O)N2C[C@H](Nc3ccc(F)c(OC(F)(F)F)c3)[C@@H](c3ccc(F)cc3)C2)nn1 [Example 838, (3R,4S)-4-(4-fluorophenyl)-N-[4-fluoro-3-(trifluoromethoxy)phenyl]-1-[(1-methyl-1H-1,2,3-triazol-4-yl)sulfonyl]pyrrolidin-3-amine] | ≥ 8.00
Cn1cnc(S(=O)(=O)N2CC(Nc3nnccc3C(F)(F)F)C(c3ccc(F)cc3)C2)c1 (stereo not drawn) [Example 384, N-{4-(4-fluorophenyl)-1-[(1-methyl-1H-imidazol-4-yl)sulfonyl]pyrrolidin-3-yl}-4-(trifluoromethyl)pyridazin-3-amine] | ≥ 5.00
Cn1cnc(S(=O)(=O)N2C[C@H](NC(=O)c3cnc(C(F)(F)F)cn3)[C@@H](c3ccccc3)C2)c1 [Example 414, N-{(3R,4S)-1-[(1-methyl-1H-imidazol-4-yl)sulfonyl]-4-phenylpyrrolidin-3-yl}-5-(trifluoromethyl)pyrazine-2-carboxamide] | ≥ 5.00
Cc1cc(N[C@H]2CN(S(=O)(=O)c3cn(C)cn3)C[C@@H]2c2ccccc2)ncc1F [Example 574, 5-fluoro-4-methyl-N-{(3R,4S)-1-[(1-methyl-1H-imidazol-4-yl)sulfonyl]-4-phenylpyrrolidin-3-yl}pyridin-2-amine] | ≥ 7.00
Cn1cnc(S(=O)(=O)N2C[C@H](Nc3cc(-c4ccc(Cl)cc4)ncn3)[C@@H](c3ccc(F)cc3)C2)c1 [Example 730, 6-(4-chlorophenyl)-N-{(3R,4S)-4-(4-fluorophenyl)-1-[(1-methyl-1H-imidazol-4-yl)sulfonyl]pyrrolidin-3-yl}pyrimidin-4-amine] | ≥ 8.00
Cn1cnc(S(=O)(=O)N2C[C@H](Nc3cc(Cl)ccn3)[C@@H](c3ccc(F)cc3)C2)c1 [Example 759, 4-chloro-N-{(3R,4S)-4-(4-fluorophenyl)-1-[(1-methyl-1H-imidazol-4-yl)sulfonyl]pyrrolidin-3-yl}pyridin-2-amine] | ≥ 8.00
Cn1cnc(S(=O)(=O)N2CC(Nc3cccc(C(F)(F)F)c3)C(C3CCCO3)C2)c1 (stereo not drawn) [Example 603, 1-[(1-methyl-1H-imidazol-4-yl)sulfonyl]-4-(tetrahydrofuran-2-yl)-N-[3-(trifluoromethyl)phenyl]pyrrolidin-3-amine] | ≥ 7.00
Cn1cnc(S(=O)(=O)N2C[C@H](Nc3cc(-c4ccc(F)cc4)ncn3)[C@@H](c3ccc(F)cc3)C2)c1 [Example 728, 6-(4-fluorophenyl)-N-{(3R,4S)-4-(4-fluorophenyl)-1-[(1-methyl-1H-imidazol-4-yl)sulfonyl]pyrrolidin-3-yl}pyrimidin-4-amine] | ≥ 8.00
COC(=O)c1sccc1S(=O)(=O)N1CC(Nc2ccc(F)c(F)c2)C(c2ccccc2)C1 (stereo not drawn) [Example 489, methyl 3-({3-[(3,4-difluorophenyl)amino]-4-phenylpyrrolidin-1-yl}sulfonyl)thiophene-2-carboxylate] | ≥ 5.00
Cn1ccc(S(=O)(=O)N2CC(Nc3ccc(F)c(F)c3)C(c3ccccc3)C2)n1 (stereo not drawn) [Example 502, N-(3,4-difluorophenyl)-1-[(1-methyl-1H-pyrazol-3-yl)sulfonyl]-4-phenylpyrrolidin-3-amine] | ≥ 5.00
CC(C)COC(=O)N[C@H]1CN(S(=O)(=O)c2cn(C)cn2)C[C@@H]1c1ccccc1 [Example 543, 2-methylpropyl {(3R,4S)-1-[(1-methyl-1H-imidazol-4-yl)sulfonyl]-4-phenylpyrrolidin-3-yl}carbamate] | ≥ 5.00
CCCn1cc(C[C@@H]2CN(S(=O)(=O)c3cn(C)cn3)C[C@H]2c2ccccc2)nn1 [Example 659, 4-({(3S,4R)-1-[(1-methyl-1H-imidazol-4-yl)sulfonyl]-4-phenylpyrrolidin-3-yl}methyl)-1-propyl-1H-1,2,3-triazole] | ≥ 5.00
Cn1cnc(S(=O)(=O)N2C[C@H](NC(=O)c3ccc(Cl)nn3)[C@@H](c3ccccc3)C2)c1 [Example 419, 6-chloro-N-{(3R,4S)-1-[(1-methyl-1H-imidazol-4-yl)sulfonyl]-4-phenylpyrrolidin-3-yl}pyridazine-3-carboxamide] | ≤ 5.00
